This note sets out measurements from ChEMBL document CHEMBL5030507, “Structure-Based Design of a Selective Class I Histone Deacetylase (HDAC) Near-Infrared (NIR) Probe for Epigenetic Regulation Detection in Triple-Negative Breast Cancer (TNBC)” (J Med Chem, 2021).

Data set [1] is described as follows: Cytotoxicity against human WI-38 cells assessed as cell growth inhibition incubated for 72 hrs by CCK8 assay. It is filed as cell-based. (Tetrazolium assays rely on reduction of a dye to a coloured formazan, in cell work by metabolically active cells.)
A short description of data set [2]: Selectivity index, ratio of GI50 for cytotoxicity against human WI-38 cells to GI50 for antiproliferative activity against triple-negative human MDA-MB-231 cells. It is filed as toxicity, cell-based. Particulars: WI-38 cells versus MDA-MB-231 cells, read-out: RatioGI50; call rule not given here.
Data set [3] is described as follows: Drug distribution in NOD-SCID mouse lung xenografted with triple negative MDA-MB-231 cells at 3 nmol, iv measured 24 hrs post infection by NRI fluorescence imaging analysis. The conditions noted are these: in vivo. It is filed as ADME, organism-based.
Data set [4] is described as follows: Drug uptake in tumor of athymic nude mouse xenografted with human MDA-MB-231 cells assessed as reduction in tumor to normal tissue ratio at 3 nmol, iv in presence of (12Z,7S,10S)-7- (4-Aminobutyl)-4-ethylidene-10-((E)-4-(heptyldisulfaneyl)but-1-en-1-yl)-9-oxa-3,6,13-triaza-1(4,2)-thiazolacyclotetradecaphane-2,5,8,12-tetraone measured up to 48 hrs by epifluorescence analysis relative to control. It is filed as ADME, organism-based, Neoplasm. Particulars: in vivo.

Data set [5] has as its target Histone deacetylase 1 (Homo sapiens, UniProt Q13547). Put plainly: Inhibition of recombinant human C-terminal FLAG/His-tagged HDAC1 (1 to 482 residues) expressed in Sf9 insect cells using fluorometric substrate measured after 60 mins by FRET assay.
For data set [6], the target named is T1, Protein deacetylase HDAC6 (Homo sapiens, UniProt Q9UBN7).
T1 sequence (Q9UBN7 whole entry): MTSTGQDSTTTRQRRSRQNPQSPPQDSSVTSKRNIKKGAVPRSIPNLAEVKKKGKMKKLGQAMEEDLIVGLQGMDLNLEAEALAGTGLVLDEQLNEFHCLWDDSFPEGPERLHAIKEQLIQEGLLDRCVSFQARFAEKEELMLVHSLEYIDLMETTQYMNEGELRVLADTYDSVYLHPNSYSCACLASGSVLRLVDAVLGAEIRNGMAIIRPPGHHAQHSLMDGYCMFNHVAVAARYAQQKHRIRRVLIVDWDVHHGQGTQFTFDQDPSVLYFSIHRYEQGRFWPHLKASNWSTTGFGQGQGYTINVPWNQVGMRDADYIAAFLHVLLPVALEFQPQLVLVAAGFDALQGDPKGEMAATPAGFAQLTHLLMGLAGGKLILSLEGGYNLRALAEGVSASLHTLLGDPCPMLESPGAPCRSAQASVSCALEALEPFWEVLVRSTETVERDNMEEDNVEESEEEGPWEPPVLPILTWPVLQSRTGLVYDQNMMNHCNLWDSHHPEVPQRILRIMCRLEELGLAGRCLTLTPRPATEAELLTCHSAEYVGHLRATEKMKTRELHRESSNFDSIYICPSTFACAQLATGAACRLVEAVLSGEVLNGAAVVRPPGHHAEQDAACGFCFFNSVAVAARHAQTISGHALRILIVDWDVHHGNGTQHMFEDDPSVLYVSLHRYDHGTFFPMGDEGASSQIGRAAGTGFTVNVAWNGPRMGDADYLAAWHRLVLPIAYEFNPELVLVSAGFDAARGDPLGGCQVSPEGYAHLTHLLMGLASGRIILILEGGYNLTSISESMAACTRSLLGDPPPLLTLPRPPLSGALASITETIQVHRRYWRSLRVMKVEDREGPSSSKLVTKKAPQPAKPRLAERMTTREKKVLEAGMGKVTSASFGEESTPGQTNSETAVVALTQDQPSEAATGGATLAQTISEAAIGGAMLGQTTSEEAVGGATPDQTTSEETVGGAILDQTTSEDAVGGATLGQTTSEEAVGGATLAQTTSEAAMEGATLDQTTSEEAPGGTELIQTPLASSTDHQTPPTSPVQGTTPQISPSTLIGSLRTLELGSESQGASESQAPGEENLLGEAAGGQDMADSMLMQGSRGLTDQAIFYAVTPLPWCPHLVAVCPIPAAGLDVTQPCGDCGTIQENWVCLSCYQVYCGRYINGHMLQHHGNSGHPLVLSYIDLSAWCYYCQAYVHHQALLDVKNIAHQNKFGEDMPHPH
The data set is described as follows: Inhibition of recombinant human full length N-terminal GST-tagged HDAC6 expressed in Sf9 cells using fluorogenic substrate measured after 60 mins by FRET assay.

The target in data set [7] is Histone deacetylase. Put plainly: Inhibition of recombinant HDAC in human HeLa nuclear extracts using fluorogenic substrate measured after 60 mins by FRET assay.
Data set [8] is described as follows: Drug distribution in triple negative human MDA-MB-231 cells expressing class 1 HDACs assessed as accumulation in nucleus by measuring colocalization of Cy5.5 signal measured for 60 mins by DAPI staining based confocal microscopic analysis. It is filed as ADME, cell-based. The conditions noted are these: mda-mb-231, 1 h.
The nature of data set [9]: Drug uptake in tumor of athymic nude mouse xenografted with human MDA-MB-231 cells at 3 nmol, iv measured 4 hrs post infection by epifluorescence analysis. It is filed as ADME, organism-based, Neoplasm. The conditions noted are these: in vivo.
Data set [10] in a line: Drug uptake in tumor of athymic nude mouse xenografted with human MDA-MB-231 cells at 3 nmol, iv pretreated with (12Z,7S,10S)-7- (4-Aminobutyl)-4-ethylidene-10-((E)-4-(heptyldisulfaneyl)but-1-en-1-yl)-9-oxa-3,6,13-triaza-1(4,2)-thiazolacyclotetradecaphane-2,5,8,12-tetraone followed by compound addition and measured up to 48 hrs by epifluorescence analysis. It is filed as ADME, organism-based, Neoplasm. Particulars: in vivo. On the technique in general: Xenograft models place foreign cells or tissue in a host animal.

Data set [11] is described as follows: Drug uptake in tumor of athymic nude mouse xenografted with human MDA-MB-231 cells at 3 nmol, iv pretreated with SAHA for 3 days followed by compound addition and measured up to 48 hrs by epifluorescence analysis. It is filed as ADME, organism-based, Neoplasm. The conditions noted are these: in vivo.
The nature of data set [12]: Drug uptake in triple negative human MDA-MB-231 cells overexpressing class 1 HDACs at 1.5 uM in presence of (12Z,7S,10S)-7- (4-Aminobutyl)-4-ethylidene-10-((E)-4-(heptyldisulfaneyl)but-1-en-1-yl)-9-oxa-3,6,13-triaza-1(4,2)-thiazolacyclotetradecaphane-2,5,8,12-tetraone measured after 60 mins by DAPI staining based confocal microscopic analysis. It is filed as ADME, cell-based. Particulars: mda-mb-231, 1 h.

The species entered for data set [13] is Homo sapiens. The data set is described as follows: Selectivity index, ratio of IC50 for inhibition of recombinant HDAC in human HeLa nuclear extracts to IC50 for inhibition of recombinant human C-terminal FLAG/His-tagged HDAC1 (1 to 482 residues) expressed in Sf9 insect cells.
Data set [14] in a line: Biodistribution in tumor of athymic nude mouse xenografted with human MDA-MB-231 cells assessed as fluorescence intensity at 3 nmol, iv measured 48 hrs post infection by epifluorescence analysis. It is filed as ADME, organism-based, Neoplasm. Particulars: in vivo.
Data set [15] is described as follows: Biodistribution in tumor of athymic nude mouse xenografted with human MDA-MB-231 cells assessed as fluorescence intensity at 3 nmol, iv pretreated with (12Z,7S,10S)-7- (4-Aminobutyl)-4-ethylidene-10-((E)-4-(heptyldisulfaneyl)but-1-en-1-yl)-9-oxa-3,6,13-triaza-1(4,2)-thiazolacyclotetradecaphane-2,5,8,12-tetraone followed by compound addition and measured after 48 hrs by epifluorescence analysis. It is filed as ADME, organism-based, Neoplasm. The conditions noted are these: in vivo.

Data set [16] in a line: Biodistribution in tumor of athymic nude mouse xenografted with human MDA-MB-231 cells assessed as fluorescence intensity at 3 nmol, iv pretreated with SAHA for 3 days followed by compound addition and measured up to 48 hrs by epifluorescence analysis. It is filed as ADME, organism-based, Neoplasm. The conditions noted are these: in vivo.
Data set [17] in a line: Biodistribution in kidney of athymic nude mouse xenografted with human MDA-MB-231 cells assessed as fluorescence intensity at 3 nmol, iv measured 48 hrs post infection by epifluorescence analysis. It is filed as ADME, organism-based. The conditions noted are these: in vivo.
Data set [18] can be described thus: Drug distribution in NOD-SCID mouse lung xenografted with triple negative MDA-MB-231 cells assessed as accumulation in metastatic lungs by measuring increase in fluorescence intensity at 3 nmol, iv measured 24 hrs post infection by NRI fluorescence imaging analysis (Rvb= 2.2+/- 0.5 10^9/s/cm2). It is filed as ADME, organism-based. The conditions noted are these: in vivo.

For data set [19], the target named is Histone deacetylase 3/Nuclear receptor corepressor 2 (HDAC3/NCoR2) (Homo sapiens, UniProt O15379). The data set is described as follows: Inhibition of C-terminal His-tagged recombinant human HDAC3 (1 to 428 residues)/N-terminal GST-tagged recombinant human NCoR2 (395 to 489 residues) co-expressed in baculovirus infected Sf9 cells using fluorometric substrate measured after 60 mins by FRET assay.
Histone deacetylase 3/Nuclear receptor corepressor 2 (HDAC3/NCoR2), sequence (O15379 whole entry, the tested form may be a part): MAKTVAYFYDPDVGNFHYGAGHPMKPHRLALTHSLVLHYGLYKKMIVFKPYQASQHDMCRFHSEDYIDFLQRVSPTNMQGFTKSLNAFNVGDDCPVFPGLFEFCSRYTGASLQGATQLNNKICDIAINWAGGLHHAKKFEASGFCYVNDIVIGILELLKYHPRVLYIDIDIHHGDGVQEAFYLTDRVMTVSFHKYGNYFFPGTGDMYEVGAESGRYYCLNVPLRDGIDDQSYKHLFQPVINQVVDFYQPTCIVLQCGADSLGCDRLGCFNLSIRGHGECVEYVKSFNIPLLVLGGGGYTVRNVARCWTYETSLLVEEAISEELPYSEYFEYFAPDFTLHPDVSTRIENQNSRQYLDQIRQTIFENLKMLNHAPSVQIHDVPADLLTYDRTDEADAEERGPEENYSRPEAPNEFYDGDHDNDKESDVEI
Histone deacetylase 3/Nuclear receptor corepressor 2 (HDAC3/NCoR2), sequence (Q9Y618 whole entry, further chain, the tested form may be a part): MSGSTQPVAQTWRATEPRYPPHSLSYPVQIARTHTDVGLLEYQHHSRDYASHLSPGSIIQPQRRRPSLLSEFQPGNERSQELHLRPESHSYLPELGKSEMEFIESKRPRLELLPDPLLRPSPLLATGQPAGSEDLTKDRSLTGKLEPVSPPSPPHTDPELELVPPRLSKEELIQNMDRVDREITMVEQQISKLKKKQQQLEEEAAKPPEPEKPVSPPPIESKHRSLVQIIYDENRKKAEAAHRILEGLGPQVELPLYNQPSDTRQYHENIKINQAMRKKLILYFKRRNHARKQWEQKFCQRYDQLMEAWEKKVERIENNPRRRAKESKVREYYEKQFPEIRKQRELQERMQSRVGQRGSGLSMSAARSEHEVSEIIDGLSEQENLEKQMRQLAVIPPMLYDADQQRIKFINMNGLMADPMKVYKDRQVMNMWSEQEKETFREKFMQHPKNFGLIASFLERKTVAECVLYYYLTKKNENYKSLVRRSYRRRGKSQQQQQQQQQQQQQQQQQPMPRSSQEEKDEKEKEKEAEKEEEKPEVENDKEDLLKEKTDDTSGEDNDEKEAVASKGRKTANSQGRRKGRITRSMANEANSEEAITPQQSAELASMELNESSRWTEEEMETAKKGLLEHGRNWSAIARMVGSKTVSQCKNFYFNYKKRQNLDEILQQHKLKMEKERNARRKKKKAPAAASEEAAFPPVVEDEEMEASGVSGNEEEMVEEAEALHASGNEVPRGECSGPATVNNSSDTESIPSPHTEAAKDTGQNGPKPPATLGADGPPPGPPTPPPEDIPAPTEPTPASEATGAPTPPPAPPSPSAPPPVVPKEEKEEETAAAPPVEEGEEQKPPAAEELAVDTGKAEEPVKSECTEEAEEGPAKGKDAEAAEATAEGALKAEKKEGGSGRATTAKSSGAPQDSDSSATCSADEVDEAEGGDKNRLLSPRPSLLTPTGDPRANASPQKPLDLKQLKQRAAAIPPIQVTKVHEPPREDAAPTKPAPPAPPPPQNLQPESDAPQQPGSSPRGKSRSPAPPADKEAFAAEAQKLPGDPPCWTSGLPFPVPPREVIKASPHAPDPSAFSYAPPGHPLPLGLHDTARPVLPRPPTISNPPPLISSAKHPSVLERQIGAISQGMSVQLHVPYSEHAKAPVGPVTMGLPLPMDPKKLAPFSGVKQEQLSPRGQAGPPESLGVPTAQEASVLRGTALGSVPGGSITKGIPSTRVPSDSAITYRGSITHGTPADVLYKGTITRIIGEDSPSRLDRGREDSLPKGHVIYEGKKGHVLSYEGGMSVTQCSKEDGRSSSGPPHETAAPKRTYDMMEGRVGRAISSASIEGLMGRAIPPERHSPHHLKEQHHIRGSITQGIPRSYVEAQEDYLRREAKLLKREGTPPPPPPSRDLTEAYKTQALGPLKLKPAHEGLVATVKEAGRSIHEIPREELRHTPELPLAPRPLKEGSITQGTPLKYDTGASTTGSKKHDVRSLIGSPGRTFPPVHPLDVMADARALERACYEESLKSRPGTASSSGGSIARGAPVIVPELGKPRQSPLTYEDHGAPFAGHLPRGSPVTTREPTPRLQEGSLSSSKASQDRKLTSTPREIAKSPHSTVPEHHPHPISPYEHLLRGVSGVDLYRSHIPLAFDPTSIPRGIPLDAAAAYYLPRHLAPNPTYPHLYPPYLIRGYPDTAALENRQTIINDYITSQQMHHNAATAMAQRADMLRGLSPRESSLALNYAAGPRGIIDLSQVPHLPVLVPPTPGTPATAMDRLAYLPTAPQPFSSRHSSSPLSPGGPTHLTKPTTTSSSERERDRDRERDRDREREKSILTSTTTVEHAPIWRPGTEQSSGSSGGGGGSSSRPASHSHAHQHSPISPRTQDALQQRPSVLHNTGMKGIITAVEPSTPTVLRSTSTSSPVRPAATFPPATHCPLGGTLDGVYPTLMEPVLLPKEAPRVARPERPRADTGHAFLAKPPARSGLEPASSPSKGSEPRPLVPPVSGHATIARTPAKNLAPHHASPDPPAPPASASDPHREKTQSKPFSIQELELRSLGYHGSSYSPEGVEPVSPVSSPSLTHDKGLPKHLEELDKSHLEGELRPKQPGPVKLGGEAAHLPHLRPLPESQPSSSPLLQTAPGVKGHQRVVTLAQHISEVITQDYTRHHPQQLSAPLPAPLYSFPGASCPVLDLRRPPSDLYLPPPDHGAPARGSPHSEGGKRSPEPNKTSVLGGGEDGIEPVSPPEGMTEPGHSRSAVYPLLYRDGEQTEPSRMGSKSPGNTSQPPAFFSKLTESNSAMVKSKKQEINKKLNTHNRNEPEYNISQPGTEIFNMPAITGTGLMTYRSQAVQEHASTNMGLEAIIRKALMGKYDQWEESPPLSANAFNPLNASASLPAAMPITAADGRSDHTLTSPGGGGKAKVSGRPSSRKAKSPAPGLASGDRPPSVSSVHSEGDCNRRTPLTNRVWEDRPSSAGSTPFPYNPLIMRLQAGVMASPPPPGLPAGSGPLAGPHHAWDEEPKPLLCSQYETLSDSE

For data set [20], the target named is Histone deacetylase 2 (Homo sapiens, UniProt Q92769). Put plainly: biochemical. It is filed as cell-based, Sf9.
Histone deacetylase 2, sequence (Q92769 whole entry): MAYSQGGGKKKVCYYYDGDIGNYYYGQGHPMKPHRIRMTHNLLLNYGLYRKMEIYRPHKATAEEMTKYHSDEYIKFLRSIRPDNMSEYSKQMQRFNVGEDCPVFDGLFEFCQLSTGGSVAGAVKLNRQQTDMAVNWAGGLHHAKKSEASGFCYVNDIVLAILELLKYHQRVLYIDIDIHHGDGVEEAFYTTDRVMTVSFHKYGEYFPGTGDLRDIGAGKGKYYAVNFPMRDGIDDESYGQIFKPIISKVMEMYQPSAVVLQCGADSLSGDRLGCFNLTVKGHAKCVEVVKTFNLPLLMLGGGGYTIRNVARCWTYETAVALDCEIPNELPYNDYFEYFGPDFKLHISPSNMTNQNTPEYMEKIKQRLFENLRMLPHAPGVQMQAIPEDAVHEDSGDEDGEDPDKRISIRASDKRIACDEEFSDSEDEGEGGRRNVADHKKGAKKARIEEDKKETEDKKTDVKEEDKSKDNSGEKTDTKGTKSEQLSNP
Description: Inhibition of recombinant human full length C-terminal His- tagged HDAC2 (1 to 488 residues) expressed in Sf9 insect cells using fluorometric substrate measured after 60 mins by FRET assay
In data set [21] the target is T2, Histone deacetylase 8 (Homo sapiens, UniProt Q9BY41).
T2 sequence (Q9BY41 whole entry): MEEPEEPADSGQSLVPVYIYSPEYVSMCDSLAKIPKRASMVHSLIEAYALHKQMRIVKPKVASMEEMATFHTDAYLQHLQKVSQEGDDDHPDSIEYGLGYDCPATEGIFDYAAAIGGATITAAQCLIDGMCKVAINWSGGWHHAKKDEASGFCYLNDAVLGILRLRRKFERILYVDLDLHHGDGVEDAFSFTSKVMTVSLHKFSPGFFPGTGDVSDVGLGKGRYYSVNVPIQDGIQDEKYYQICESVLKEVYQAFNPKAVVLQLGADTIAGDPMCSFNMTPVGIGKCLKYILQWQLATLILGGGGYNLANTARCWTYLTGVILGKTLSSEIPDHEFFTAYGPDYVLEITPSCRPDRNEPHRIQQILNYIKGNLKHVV
The data set is described as follows: Inhibition of recombinant human full length C-terminal His-tagged HDAC8 expressed in baculovirus infected Sf9 insect cells using fluorometric substrate measured after 60 mins by FRET assay.

In data set [22] the target is T3, Polyamine deacetylase HDAC10 (Homo sapiens, UniProt Q969S8).
T3 sequence (Q969S8 whole entry): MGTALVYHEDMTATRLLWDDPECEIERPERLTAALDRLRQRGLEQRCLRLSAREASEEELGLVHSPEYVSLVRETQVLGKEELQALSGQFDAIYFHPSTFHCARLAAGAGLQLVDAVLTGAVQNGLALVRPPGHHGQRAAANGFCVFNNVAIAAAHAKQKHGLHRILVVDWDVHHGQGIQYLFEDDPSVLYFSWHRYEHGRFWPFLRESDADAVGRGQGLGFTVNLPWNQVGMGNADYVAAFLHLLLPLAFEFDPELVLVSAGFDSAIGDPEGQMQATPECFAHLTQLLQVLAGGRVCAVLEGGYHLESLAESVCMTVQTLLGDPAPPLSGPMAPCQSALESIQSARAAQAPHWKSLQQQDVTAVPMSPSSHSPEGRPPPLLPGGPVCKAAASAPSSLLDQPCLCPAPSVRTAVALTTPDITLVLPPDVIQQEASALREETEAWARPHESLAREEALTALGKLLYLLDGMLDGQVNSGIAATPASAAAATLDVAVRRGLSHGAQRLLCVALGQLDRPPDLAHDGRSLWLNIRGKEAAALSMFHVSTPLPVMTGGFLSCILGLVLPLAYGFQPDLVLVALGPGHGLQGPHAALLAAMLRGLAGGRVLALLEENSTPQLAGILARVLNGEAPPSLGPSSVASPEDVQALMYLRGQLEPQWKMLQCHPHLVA
Put plainly: Inhibition of recombinant human N-terminal FLAG tagged HDAC10 (2 to 631 residues) expressed in baculovirus infected Sf9 insect cells using fluorogenic substrate measured after 60 mins by FRET assay.

In data set [23] the test system is MDA-MB-231. Put plainly: Antiproliferative activity against triple-negative human MDA-MB-231 cells assessed as cell growth inhibition incubated for 72 hrs by CCK8 assay. It is filed as functional.

Histone deacetylase 1, sequence (Q13547 whole entry, the tested form may be a part): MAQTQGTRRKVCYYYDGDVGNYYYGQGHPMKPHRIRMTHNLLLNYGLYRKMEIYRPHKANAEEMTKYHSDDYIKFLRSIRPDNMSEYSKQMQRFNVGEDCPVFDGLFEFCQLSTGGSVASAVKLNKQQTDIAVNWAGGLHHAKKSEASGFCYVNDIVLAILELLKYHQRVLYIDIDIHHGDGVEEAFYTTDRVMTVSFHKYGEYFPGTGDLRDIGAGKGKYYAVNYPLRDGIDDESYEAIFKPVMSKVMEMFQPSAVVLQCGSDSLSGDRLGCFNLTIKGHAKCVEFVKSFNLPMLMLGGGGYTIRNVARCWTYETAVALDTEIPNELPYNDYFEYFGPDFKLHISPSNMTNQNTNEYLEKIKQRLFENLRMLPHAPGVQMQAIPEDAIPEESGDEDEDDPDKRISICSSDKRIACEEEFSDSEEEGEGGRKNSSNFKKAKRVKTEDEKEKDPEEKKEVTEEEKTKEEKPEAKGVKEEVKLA

`C/C=C1\NC(=O)[C@H]2CSSCC/C=C/[C@H](CC(=O)N[C@H](C(C)C)C(=O)N2)OC(=O)[C@H](C(C)C)NC1=O` [ROMIDEPSIN]: the 50% growth inhibitory concentration (GI50) (usually the concentration giving 50% growth inhibition) at 72 h in [1] came to 30.1 nM. For the same molecule, the selectivity ratio in data set [2] worked out at 3.1.
For `C/C=C1\NC(=O)c2csc(n2)CNC(=O)C[C@@H](/C=C/CCSSCCCCCCC)OC(=O)[C@H](CCCCNC(=O)CCCCC[N+]2=C(/C=C/C=C/C=C3/N(CC)c4ccc5c(S(=O)(=O)O)cc(S(=O)(=O)O)cc5c4C3(C)C)C(C)(C)c3c2ccc2c(S(=O)(=O)[O-])cc(S(=O)(=O)O)cc32)NC1=O`, the Drug uptake result in [3] is given as “Active”; in [4], 70%; in data set [8], “Active”; in [9], “Active”; in data set [10] it was “Not Active”; in data set [11] it was “Not Active”. Also, in data set [12], the Drug uptake result is “Not Active”. Further, the concentration for half-maximal inhibition (IC50) (commonly the concentration that inhibits the measured activity by half) in data set [5] worked out at 8 nM; in data set [6] it was 70 nM; in data set [7] it was 824 nM. The Ratio IC50 in data set [13] is 100. Besides, the Flu intensity in data set [14] is 3.13 10^9/s/cm2; in [15], 1.95 10^9/s/cm2; in data set [16], 1.33 10^9/s/cm2; in data set [17] it was 3.06 10^9/s/cm2; in [18], 8 10^9/s/cm2.
Consider `C/C=C1\NC(=O)c2csc(n2)CNC(=O)C[C@@H](/C=C/CCSC(=O)CCCCCCC)OC(=O)[C@H](C(C)C)NC1=O`, for which the IC50 in [5] came out at 3.1 nM; in [19] it was 8.9 nM; in [20], 5.3 nM; in data set [21], 3960 nM; in data set [6] it was 1810 nM; in data set [22] it was 37 nM. The concentration for 50% growth inhibition (GI50) in data set [23] amounted to 11.3 nM. Besides, the 50% growth inhibitory concentration (GI50) at 72 h in data set [1] amounted to 363 nM. In addition, in data set [2], the selectivity ratio was 32.
